# Measurements taken from paper PMC11769294, “(E)-1-(3-(3-Hydroxy-4-Methoxyphenyl)-1-(3,4,5-Trimethoxyphenyl)allyl)-1H-1,2,4-Triazole and Related Compounds: Their Synthesis and Biological Evaluation as Novel Antimitotic Agents Targeting Breast Cancer” (Pharmaceuticals, 2025).
# Values joined by “and” are separate entries in the source; they are usually repeats but may differ in a detail not shown here. Equal values may be shown once. Read-outs that look alike come from different tables or passages of the source.
# What was measured:
# [1] = tested on: breast cancer panel; test: NCI60 screen (SRB), panel mean; assay type: cell-based, human; conditions: BC panel; one dose 10 µM; 48 h
# [2] = tested on: UACC-257 (Melanoma); test: NCI60 screen (SRB); assay type: cell-based, human; conditions: 48 h; for growth percent: one dose 10 µM
# [3] = tested on: IGROV1 (Ovarian Cancer); test: NCI60 screen (SRB); assay type: cell-based, human; conditions: 48 h; for growth percent: one dose 10 µM
# [4] = tested on: MCF-7 breast cancer cells; test: alamarBlue cell viability assay; assay type: cell-based; conditions: Homo sapiens, MCF7, MCF-7
# Procedure: Figure 5 Preliminary cell viability data for Series 1: (A) compounds 22a–22g and chalcone 20b and Series 2: (B) compounds 23a–e and chalcone 20b in MCF-7 breast cancer cells. Cell proliferation of MCF-7 cells was determined with an alamarBlue assay (seeding density 2.5 × 10^4 cells/mL per well for 96-well plates). Compound concentrations of either 1 or 0.1 μM for 72 h were used to treat the cells (in triplicate) with control wells containing vehicle ethanol (1% v/v). The mean value ± SEM for three independent experiments is shown. The positive controls used are CA-4 and phenstatin (1.0 μM and 0.1 μM). Statistical analysis was performed using One-way ANOVA with the Sidak multiple comparison test (***, p < 0.001).
# HL-60 cells were suspension cells and the seeding density for the viability assay was 25,000 cells/mL. MCF-7 cells (adherent) were cultured in Minimum Essential Media (MEM) with GlutaMAX™-I, supplemented with 1% (v/v) non-essential amino acids, 10% (v/v) fetal bovine serum (FBS), purchased from BD Biosciences (Edmund Halley Road, Oxford, UK), and 1% (v/v) penicillin/streptomycin 5000 U/mL. The MCF-7 cells used in the screening of the compounds during these experiments were mycoplasma-free. The seeding density of MCF-7 in the viability assay was 25,000 cells/mL and 50,000 cells/mL in the FACS assay. Normal breast cells (MCF-10A) (adherent) were cultured in Dulbecco’s Modified Eagle Medium: Nutrient Mixture F-12 (DMEM/F12; Gibco) supplemented with 5% horse serum (Invitrogen, Waltham, MA, USA), 20 ng/mL epidermal growth factor (Merck Millipore, Burlington, MA, USA), 0.5 μg/mL hydrocortisone (Sigma, Kanagawa, Japan), 100 ng/mL cholera toxin (Sigma), 10 μg/mL insulin (Sigma), and penicillin/streptomycin 5000 U/mL (1%) (Gibco, Waltham, MA, USA). […] MDA-MB-231 cells were cultured in Dulbecco’s Modified Eagle Medium, which was supplemented with 10% (v/v) fetal bovine serum (FBS) and 1% (v/v) penicillin/streptomycin 5000 U/mL. When not in use, all cells were kept in liquid nitrogen and frozen in a freezing media made of 90% FBS and 10% DMSO. All cells were grown in an atmosphere of 5% CO2/95% air in T75 culture flasks. The media was changed every 2–3 days and media was always prewarmed to 37 °C. All were sub-cultured every 3–4 days by trypsinization using TrypLE™ Express enzyme when confluence was reached to allow growth, prevent excessive cell death, and minimize the risk of infections derived by over-confluence. For the cell viability assay, the number of cells per milliliter was 25,000 cells/mL while the FACS assay utilized 50,000 cells/mL. Cells were maintained at 37 °C in 5% CO2 in a humidified incubator.
# The biochemical assays were performed in triplicate and on at least three independent occasions to facilitate the determination of mean values. For the viability assay, cells were grown until 80% confluent. Adherent cells such as MCF-7, MDA-MB-231, and MCF-10A were trypsinized to detach them from the flask, counted as previously described, and seeded in 96 well plates with a seeding density of 25,000 cells /mL (200 µL of suspension in each well so that the final number of cells per well was 5000) and 1 × 10^4 cells/well seeding density for suspension HL-60 cells. Adherent cells were incubated for 24 h after being seeded in the 96 well plate and treated on the following day, while suspension cells were treated on the same day of the seeding. In both cases, the incubation time after the treatment with the drug was 72 h. After 68 h incubation, the AlamarBlue was added (20 µL in each well) and the incubation time was completed. After 72 h, the change in color was measured by spectrofluorimetry at an excitation wavelength of 544 nm and emission wavelength of 590 nm. AlamarBlue is a cell viability indicator containing a compound called resazurin. AlamarBlue is water soluble, stable in culture media, non-toxic, and is permeable through the cell membrane. […]
# [5] = tested on: CCRF-CEM (Leukemia); test: NCI60 screen (SRB); assay type: cell-based, human; conditions: 48 h; for growth percent: one dose 10 µM
# [6] = tested on: U251 (CNS Cancer); test: NCI60 screen (SRB); assay type: cell-based, human; conditions: 48 h; for growth percent: one dose 10 µM
# [7] = tested on: UO-31 (Renal Cancer); test: NCI60 screen (SRB); assay type: cell-based, human; conditions: 48 h; for growth percent: one dose 10 µM
# [8] = tested on: NCI 60 cancer cell line panel; test: NCI60 screen (SRB), all cell lines; assay type: cell-based, human; conditions: for mean growth percent: over the 60-cell line panel, one dose 10 µM
# [9] = tested on: MOLT-4 (Leukemia); test: NCI60 screen (SRB); assay type: cell-based, human; conditions: one dose 10 µM, 48 h
# [10] = tested on: SK-OV-3 (Ovarian Cancer); test: NCI60 screen (SRB); assay type: cell-based, human; conditions: 48 h; for growth percent: one dose 10 µM
# [11] = tested on: OVCAR-4 (Ovarian Cancer); test: NCI60 screen (SRB); assay type: cell-based, human; conditions: 48 h; for growth percent: one dose 10 µM
# [12] = tested on: HOP-62 (Non-Small Cell Lung Cancer); test: NCI60 screen (SRB); assay type: cell-based, human; conditions: 48 h; for growth percent: one dose 10 µM
# [13] = tested on: HCT-15 (Colon Cancer); test: NCI60 screen (SRB); assay type: cell-based, human; conditions: 48 h; for growth percent: one dose 10 µM
# [14] = tested on: NCI-H522 (Non-Small Cell Lung Cancer); test: NCI60 screen (SRB); assay type: cell-based, human; conditions: for growth percent: one dose 10 µM; for GI50: five-dose
# [15] = tested on: MDA-MB-231/ATCC (Breast Cancer); test: NCI60 screen (SRB); assay type: cell-based, human; conditions: 48 h; for growth percent: one dose 10 µM
# [16] = tested on: DU-145 (Prostate Cancer); test: NCI60 screen (SRB); assay type: cell-based, human; conditions: 48 h; for growth percent: one dose 10 µM
# [17] = tested on: SNB-19 (CNS Cancer); test: NCI60 screen (SRB); assay type: cell-based, human; conditions: 48 h; for growth percent: one dose 10 µM
# [18] = tested on: MDA-MB-435 (Melanoma); test: NCI60 screen (SRB); assay type: cell-based, human; conditions: 48 h; for growth percent: one dose 10 µM
# [19] = Homo sapiens, five-dose, read-out: IC50 (cell marked * in GI50 column)
# [20] = Homo sapiens, five-dose, read-out: IC50 (cell marked * in GI50 column) (converted)
smiles,measurement,setting,value
"COc1ccc(/C=C/C(c2cc(OC)c(OC)c(OC)c2)n2cncn2)cc1 (stereo not shown) [Compound 22a, (E)-1-(3-(4-Methoxyphenyl)-1-(3,4,5-trimethoxyphenyl)allyl)-1H-1,2,4-triazole]",mean growth percentage,[1],40.1%
same,growth percent,[2],46.44%
same,growth percent,[3],64.61%
same,viability at 1 µM,"[4]; 72 h, read-out: viable cells",60%
same,growth percent,[5],35.07%
same,growth percent,[6],31.77%
same,growth percent,[7],64.39%
same,mean growth percent,[8]; 48 h,41.9%
same,growth percent,[9],39.43%
same,growth percent,[10],35.55%
same,growth percent,[11],96.82%
same,growth percent,[12],41.84%
same,growth percent,[13],31.14%
same,growth percent,[14]; 48 h,28.37%
same,growth percent,[15],50.05%
same,growth percent,[16],61.25%
same,growth percent,[17],49.01%
same,growth percent,[18],−9.62%
"COc1ccc(/C=C/C(c2cc(OC)c(OC)c(OC)c2)n2cncn2)cc1O (stereo not shown) [Compound 22b, (E)-5-(3-(1H-1,2,4-Triazol-1-yl)-3-(3,4,5-trimethoxyphenyl)prop-1-en-1-yl)-2-methoxyphenol]",mean growth percentage,[1],29.1%
same,GI50,"[2]; Homo sapiens, five-dose",> 100000 nM
same,growth percent,[2],55.61%
same,GI50,"[3]; Homo sapiens, IGROV-1, five-dose",5830 nM
same,growth percent,[3],50.48%
same,IC50,[4],390 nM
same,viability at 0.5 µM,"[4]; 0.5 μM, 72 h, Figure 9C",70%
same,viability at 1 µM,"[4]; 72 h, Figure 9C, read-out: cell viability",30%
same,viability at 1 µM,"[4]; 72 h, read-out: viable cells",40%
same,viability at 10 µM,"[4]; 10 μM, 72 h, Figure 9C",20%
same,IC50,[4]; 72 h,385 ± 120 nM
same,GI50,"[5]; Homo sapiens, five-dose",32 nM
same,growth percent,[5],6.31%
same,GI50,"[6]; Homo sapiens, U-251, five-dose",50.6 nM
same,growth percent,[6],20.72%
same,IC50,[7]; [19],> 100000 nM
same,growth percent,[7],54.20%
same,GI50,"[8]; Homo sapiens, 48 h, five-dose, 48 h, read-out: MG-MID (mean of GI50 values over all cell lines)",371 nM
same,GI50,"[8]; Homo sapiens, Figure 8, concentration in molar, read-out: Log 10 GI-50 Mean (converted)",2140 nM
same,IC50,"[8]; Homo sapiens, Figure 8, concentration in molar, read-out: Log 10 IC-50 Mean (converted)",2880 nM
same,LC50 (50% lethal concentration),"[8]; Homo sapiens, over all 60 cell lines, five-dose",> 100000 nM
same,GI50,"[8]; five-dose, 48 h, read-out: MG-MID (mean of GI50 values over all cell lines)",372 nM
same,TGI (total growth inhibition),"[8]; over all 60 cell lines, five-dose",57500 nM
same,mean growth percent,[8]; 48 h,29.9%
same,growth percent,[9],21.84%
same,IC50,[10]; [19],> 100000 nM
same,growth percent,[10],12.67%
same,GI50,"[11]; Homo sapiens, five-dose",7050 nM
same,growth percent,[11],83.51%
same,IC50,[12]; [20],30200 nM
same,growth percent,[12],22.52%
same,GI50,"[13]; Homo sapiens, five-dose",50.8 nM
same,growth percent,[13],16.53%
same,GI50,"[14]; Homo sapiens, NCI-H522, 48 h",22 nM
same,GI50,[14]; 48 h,22.3 nM
same,growth percent,[14]; 48 h,13.04%
same,GI50,"[15]; Homo sapiens, five-dose",3020 nM
same,IC50,[16]; [20],6610 nM
same,growth percent,[16],21.00%
same,IC50,[17]; [20],25700 nM
same,growth percent,[17],34.19%
same,GI50,"[18]; Homo sapiens, five-dose",18.3 nM
same,growth percent,[18],−32.99%
"COc1cc(/C=C/C(/C=C/c2cc(OC)c(OC)c(OC)c2)n2ccnc2)cc(OC)c1OC [Compound 30, 1-((1E,4E)-1,5-bis(3,4,5-trimethoxyphenyl)penta-1,4-dien-3-yl)-1H-imidazole]",mean growth percentage,[1],71.5%
same,growth percent,[2],75.61%
same,growth percent,[3],78.02%
same,viability at 1 µM,"[4]; 72 h, read-out: viable cells",77%
same,growth percent,[5],65.10%
same,growth percent,[6],81.64%
same,growth percent,[7],66.56%
same,mean growth percent,[8]; 48 h,81.3%
same,growth percent,[9],74.07%
same,growth percent,[10],92.06%
same,growth percent,[11],92.69%
same,growth percent,[12],84.91%
same,growth percent,[13],77.23%
same,growth percent,[14]; 48 h,64.75%
same,growth percent,[15],76.21%
same,growth percent,[16],100.17%
same,growth percent,[17],89.08%
same,growth percent,[18],45.63%
"COc1ccc(C2CC(n3ccnc3)c3cc(OC)c(OC)c(OC)c32)cc1O (stereo not shown) [Compound 27a, 5-(3-(1H-Imidazol-1-yl)-5,6,7-trimethoxy-2,3-dihydro-1H-inden-1-yl)-2-methoxyphenol]",mean growth percentage,[1],79.1%
same,growth percent,[2],58.46%
same,growth percent,[3],82.43%
same,growth percent,[5],90.92%
same,growth percent,[6],80.36%
same,growth percent,[7],79.93%
same,mean growth percent,[8]; 48 h,79.2%
same,growth percent,[9],90.04%
same,growth percent,[10],86.31%
same,growth percent,[11],100.34%
same,growth percent,[12],80.77%
same,growth percent,[13],59.92%
same,growth percent,[14]; 48 h,50.13%
same,growth percent,[15],81.01%
same,growth percent,[16],102.37%
same,growth percent,[17],93.73%
same,growth percent,[18],5.00%
"COc1ccc(/C=C/C(c2cc(OC)c(OC)c(OC)c2)n2ccnc2)cc1O (stereo not shown) [Compound 23b, (E)-5-(3-(1H-Imidazol-1-yl)-3-(3,4,5-trimethoxyphenyl)prop-1-en-1-yl)-2-methoxyphenol]",mean growth percentage,[1],38.1%
same,growth percent,[2],34.19%
same,growth percent,[3],55.74%
same,viability at 0.1 µM,"[4]; 0.1 μM, 72 h, read-out: viable cells",75%
same,viability at 1 µM,"[4]; 72 h, read-out: viable cells",74%
same,growth percent,[5],37.13%
same,growth percent,[6],27.12%
same,growth percent,[7],59.92%
same,mean growth percent,[8]; 48 h,39.7%
same,growth percent,[9],31.88%
same,growth percent,[10],33.54%
same,growth percent,[11],78.81%
same,growth percent,[12],47.25%
same,growth percent,[13],24.91%
same,growth percent,[14]; 48 h,24.65%
same,growth percent,[15],53.0% and 52.97%
same,growth percent,[16],37.76%
same,growth percent,[17],47.27%
same,growth percent,[18],−25.56%
